The record followed here is patent publication US20090221829A1 (priority 2005, published 2009).

SMILES strings stand for the structures.

The test relates to Candida albicans(KCTC 1940), Aspergillus niger (ATCC 9642) and Saccharomyces cerevisiae. Put plainly: Relative antifungal activity by agar dilution method (vs Miconazole).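 Further: scores 5 to 7 mean a lower fungicidal concentration than Miconazole so higher is more potent.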 The format is cell-based. Conditions: agar dilution method; fungicidal concentration relative to control drug Miconazole (=4). An excerpt:
Novel compounds represented by the above chemical formula (I), and the relative activities in accordance with the agar dilution method in Sabouraud dextrose agar media, Czapek agar media and Yeast Extract-Peptone-Dextrose agar media for Candida albicans(KCTC 1940), Aspergillus niger (ATCC 9642) and Saccharomyces cerevisiae are described respectively in following Table 1.
Background: In agar dilution the substance is mixed into plates at graded concentrations.
For the compound `CCCCCCC1=[N+](Cc2c(F)cccc2F)CCc2cc(OC)c(OC)cc21.[Cl-]` [Compound No. 58, 1-n-hexyl-2-(2,6-difluorophenyl)methyl-3,4-dihydro-6,7-dimethoxyisoquinolinium chloride], the “Relative Activity” value came to 4.
With `CCCCCCCCCCCC1=[N+](Cc2c(F)cccc2F)CCc2cc(OC)c(OC)cc21.[Cl-]` [Compound No. 59, 1-n-undecyl-2-(2,6-difluorophenyl)methyl-3,4-dihydro-6,7-dimethoxyisoquinolinium chloride], the “Relative Activity” value was found to be 1.
To `CCCCCCCC1=[N+](Cc2c(F)cccc2F)CCc2cc(OC)c(OC)cc21.[Cl-]` [Compound No. 61, 1-n-heptyl-2-(2,6-difluorophenyl)methyl-3,4-dihydro-6,7-dimethoxyisoquinolinium chloride] belongs 4; to `COc1cc2c(cc1OC)C(c1ccc(C(C)(C)C)cc1)=[N+](Cc1c(F)cccc1F)CC2.[Cl-]` [Compound No. 63, 1-(4-t-butylphenyl)-2-(2,6-difluorophenyl)methyl-3,4-dihydro-6,7-dimethoxyisoquinolinium chloride], 6; to `COc1cc2c(cc1OC)C(C)=[N+](Cc1c(F)cccc1Cl)CC2.[Cl-]` [Compound No. 64, 1-methyl-2-(2-chloro-6-fluorophenyl)methyl-3,4-dihydro-6,7-dimethoxyisoquinolinium chloride], 6.
To `COc1cc2c(cc1OC)C(C(C)C)=[N+](Cc1c(F)cccc1Cl)CC2.[Cl-]` [Compound No. 65, 1-i-propyl-2-(2-chloro-6-fluorophenyl)methyl-3,4-dihydro-6,7-dimethoxyisoquinolinium chloride] belongs 5.
With `CCCCCC1=[N+](Cc2c(F)cccc2Cl)CCc2cc(OC)c(OC)cc21.[Cl-]` [Compound No. 66, 1-n-pentyl-2-(2-chloro-6-fluorophenyl)methyl-3,4-dihydro-6,7-dimethoxyisoquinolinium chloride], the “Relative Activity” value was determined as 5.
In the case of `CCCCCCCC1=[N+](Cc2c(F)cccc2Cl)CCc2cc(OC)c(OC)cc21.[Cl-]` [Compound No. 67, 1-n-heptyl-2-(2-chloro-6-fluorophenyl)methyl-3,4-dihydro-6,7-dimethoxyisoquinolinium chloride], the “Relative Activity” value is 4.
The result for `CCCCCCCCCCCC1=[N+](Cc2c(F)cccc2Cl)CCc2cc(OC)c(OC)cc21.[Cl-]` [Compound No. 68, 1-n-undecyl-2-(2-chloro-6-fluorophenyl)methyl-3,4-dihydro-6,7-dimethoxyisoquinolinium chloride] reads 2; that for `COc1cc2c(cc1OC)C(c1ccccc1F)=[N+](Cc1c(F)cccc1Cl)CC2.[Cl-]` [Compound No. 69, 1-(2-fluorophenyl)-2-(2-chloro-6-fluorophenyl)methyl-3,4-dihydro-6,7-dimethoxyisoquinolinium chloride], 6; that for `COc1cc2c(cc1OC)C(c1ccc(C(C)(C)C)cc1)=[N+](Cc1c(F)cccc1Cl)CC2.[Cl-]` [Compound No. 70, 1-(4-t-butylphenyl)-2-(2-chloro-6-fluorophenyl)methyl-3,4-dihydro-6,7-dimethoxyisoquinolinium chloride], 6.
For `COc1cc2c(cc1OC)C(C)=[N+](Cc1ccccc1[N+](=O)[O-])CC2.[Cl-]` [Compound No. 71, 1-methyl-2-(2-nitrophenyl)methyl-3,4-dihydro-6,7-dimethoxyisoquinolinium chloride], the “Relative Activity” value was determined as 6.
With `COc1cc2c(cc1OC)C(C(C)C)=[N+](Cc1ccccc1[N+](=O)[O-])CC2.[Cl-]` [Compound No. 72, 1-i-propyl-2-(2-nitrophenyl)methyl-3,4-dihydro-6,7-dimethoxyisoquinolinium chloride], the “Relative Activity” value is 6.
Take `CCCCCCCC1=[N+](Cc2ccccc2[N+](=O)[O-])CCc2cc(OC)c(OC)cc21.[Cl-]` [Compound No. 73, 1-n-heptyl-2-(2-nitrophenyl)methyl-3,4-dihydro-6,7-dimethoxyisoquinolinium chloride]: the “Relative Activity” value worked out at 5.
As to `CCCCCCCCCCCC1=[N+](Cc2ccccc2[N+](=O)[O-])CCc2cc(OC)c(OC)cc21.[Cl-]` [Compound No. 74, 1-n-undecyl-2-(2-nitrophenyl)methyl-3,4-dihydro-6,7-dimethoxyisoquinolinium chloride], the “Relative Activity” value was determined as 2.
Turning to `COc1cc2c(cc1OC)C(c1ccc(C(C)(C)C)cc1)=[N+](Cc1ccccc1[N+](=O)[O-])CC2.[Cl-]` [Compound No. 75, 1-(4-t-butylphenyl)-2-(2-nitrophenyl)methyl-3,4-dihydro-6,7-dimethoxyisoquinolinium chloride], the “Relative Activity” value stood at 6.
Take `CCCCCCCC1=[N+](Cc2ccc(O)c([N+](=O)[O-])c2)CCc2cc(OC)c(OC)cc21.[Cl-]` [Compound No. 76, 1-n-heptyl-2-(4-hydroxy-3-nitrophenyl)methyl-3,4-dihydro-6,7-dimethoxyisoquinolinium chloride]: the “Relative Activity” value is 4.
In the case of `CCCCCCCCCCCC1=[N+](Cc2ccc(O)c([N+](=O)[O-])c2)CCc2cc(OC)c(OC)cc21.[Cl-]` [Compound No. 77, 1-n-undecyl-2-(4-hydroxy-3-nitrophenyl)methyl-3,4-dihydro-6,7-dimethoxyisoquinolinium chloride], the “Relative Activity” value was determined as 2.
The result for `COc1cc2c(cc1OC)C(C)=[N+](Cc1cc(Br)c(OC)c(OC)c1)CC2.[Cl-]` [Compound No. 78, 1-methyl-2-(3-bromo-4,5-dimethoxy)methyl-3,4-dihydro-6,7-dimethoxyisoquinolinium chloride] reads 6; that for `CCCCCCCC1=[N+](Cc2cc(Br)c(OC)c(OC)c2)CCc2cc(OC)c(OC)cc21.[Cl-]` [Compound No. 79, 1-n-heptyl-2-(3-bromo-4,5-dimethoxyphenyl)methyl-3,4-dihydro-6,7-dimethoxyisoquinolinium chloride], 5.
`COc1ccc2c(c1)CC[N+](Cc1ccccc1F)=C2C.[Cl-]` [Compound No. 80, 1-methyl-2-(2-fluorophenyl)methyl-3,4-dihydro-6-methoxyisoquinolinium chloride]: the “Relative Activity” value was 6.
The result for `CCC1=[N+](Cc2ccccc2F)CCc2cc(OC)ccc21.[Cl-]` [Compound No. 81, 1-ethyl-2-(2-fluorophenyl)methyl-3,4-dihydro-6-methoxyisoquinolinium chloride] reads 6; that for `CCCC1=[N+](Cc2ccccc2F)CCc2cc(OC)ccc21.[Cl-]` [Compound No. 82, 1-n-propyl-2-(2-fluorophenyl)methyl-3,4-dihydro-6-methoxyisoquinolinium chloride], 6.
`COc1ccc2c(c1)CC[N+](Cc1ccccc1F)=C2CC(C)C.[Cl-]` [Compound No. 84, 1-(2-methyl)propyl-2-(2-fluorophenyl)methyl-3,4-dihydro-6-methoxyisoquinolinium chloride]: the “Relative Activity” value is 6.
In the case of `CCCCCC1=[N+](Cc2ccccc2F)CCc2cc(OC)ccc21.[Cl-]` [Compound No. 85, 1-n-pentyl-2-(2-fluorophenyl)methyl-3,4-dihydro-6-methoxyisoquinolinium chloride], the “Relative Activity” value is listed as 5.
